Experimental data published in the Kinase Knowledgebase extract (Sharma et al. 2016).

Target: MAPK14 (human) (UniProt Q16539)
Assay: Inhibition of MAPK14 Kinase Activity

MAPK14 (human), sequence (Q16539 whole entry, looked up): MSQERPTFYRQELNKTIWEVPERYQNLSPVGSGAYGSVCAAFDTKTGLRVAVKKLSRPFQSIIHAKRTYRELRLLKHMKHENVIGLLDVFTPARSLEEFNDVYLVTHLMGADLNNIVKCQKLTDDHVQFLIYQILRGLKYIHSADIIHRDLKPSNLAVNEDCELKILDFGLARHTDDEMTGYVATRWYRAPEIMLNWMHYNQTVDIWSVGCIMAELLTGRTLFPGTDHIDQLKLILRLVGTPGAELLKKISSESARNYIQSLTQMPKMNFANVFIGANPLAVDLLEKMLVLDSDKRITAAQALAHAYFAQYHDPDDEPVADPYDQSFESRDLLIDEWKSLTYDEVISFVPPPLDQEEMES

| SMILES | IC50 |
| --- | --- |
| Cc1cccc(Cn2c(C(N)=O)cc3c2ccc(=O)n3-c2ccccc2)c1 | ≤ 2000 nM |
| NC(=O)c1cc2c(ccc(=O)n2-c2ccccc2)n1Cc1cccc(Cl)c1 | ≤ 2000 nM |
| NNC(=O)c1cc2c(ccc(=O)n2-c2ccccc2)n1Cc1cccc(Cl)c1 | ≤ 2000 nM |
| N#Cc1ccc(Cn2ccc3c2ccc(=O)n3-c2ccccc2)cc1 | ≤ 2000 nM |
| Cc1cccc(Cn2ccc3c2ccc(=O)n3-c2ccccc2)c1 | ≤ 2000 nM |
| COc1ccc(-n2c(=O)ccc3c2ccn3Cc2ccccc2)cc1 | ≤ 2000 nM |
| CN(C)C(=O)c1cc2c(ccc(=O)n2-c2ccccc2)n1Cc1cccc(Cl)c1 | ≤ 2000 nM |
| O=C(c1cc2c(ccc(=O)n2-c2ccccc2)n1Cc1cccc(Cl)c1)N1CCCC1 | ≤ 2000 nM |
| Cc1cc(Cn2c(C(N)=O)cc3c2ccc(=O)n3-c2ccccc2)ccc1F | ≤ 2000 nM |
| O=c1ccc2c(ccn2CCc2ccccc2)n1-c1ccccc1 | ≤ 2000 nM |
| CON(C)C(=O)c1cc2c(ccc(=O)n2-c2ccccc2)n1Cc1cccc(Cl)c1 | ≤ 2000 nM |
| O=c1ccc2c(ccn2Cc2ccc(Cl)c(Cl)c2)n1-c1ccccc1 | ≤ 2000 nM |
| O=c1ccc2c(ccn2Cc2c(Cl)cccc2Cl)n1-c1ccccc1 | ≤ 2000 nM |
| O=c1ccc2c(ccn2Cc2cccnc2)n1-c1ccccc1 | ≤ 2000 nM |
| Cc1cccc(Cn2c(C(=O)N3CCC[C@H]3CO)cc3c2ccc(=O)n3-c2ccccc2)c1 | ≤ 2000 nM |
| N#Cc1ccccc1Cn1c(C(N)=O)cc2c1ccc(=O)n2-c1ccccc1 | ≤ 2000 nM |
| O=c1ccc2c(ccn2Cc2ccc(F)c(F)c2)n1-c1ccccc1 | ≤ 2000 nM |
| CCOC(=O)c1cc2c(ccc(=O)n2-c2ccccc2)n1Cc1cccc(Cl)c1 | ≤ 2000 nM |
| O=c1ccc2c(ccn2Cc2ccc(F)cc2F)n1-c1ccccc1 | ≤ 2000 nM |
| Cc1ccc(Cn2ccc3c2ccc(=O)n3-c2ccccc2)cc1 | ≤ 2000 nM |
| O=c1ccc2c(cc(S(=O)(=O)N3CCCC3)n2Cc2cccc(Cl)c2)n1-c1ccccc1 | ≤ 2000 nM |
| O=c1ccc2c(ccn2Cc2cccc(Cl)c2)n1-c1ccsc1 | ≤ 2000 nM |
| O=c1ccc2c(ccn2Cc2ccc(F)cc2)n1-c1ccccc1 | ≤ 2000 nM |
| NC(=O)c1cc2c(ccc(=O)n2-c2ccccc2)n1Cc1ccc(F)c(Cl)c1 | ≤ 2000 nM |
| CCOC(=O)c1cc2c(ccc(=O)n2-c2ccccc2)n1Cc1ccc(F)c(C)c1 | ≤ 2000 nM |
| O=c1ccc2c(ccn2Cc2cc(Cl)ccc2Cl)n1-c1ccccc1 | ≤ 2000 nM |
| O=c1ccc2c(ccn2Cc2cccc(Cl)c2)n1-c1ccccc1 | ≤ 2000 nM |

| SMILES | IC50 |
| --- | --- |
| Cc1ccc(-n2c(=O)ccc3c2cc(C(=O)NN)n3Cc2cccc(Cl)c2)cc1 | ≤ 2000 nM |
| CCOC(=O)c1cc2c(ccc(=O)n2-c2ccccc2)n1Cc1cccc(C)c1 | ≤ 2000 nM |
| CON(C)C(=O)c1cc2c(ccc(=O)n2-c2ccccc2)n1Cc1ccc(F)c(Cl)c1 | ≤ 2000 nM |
| COc1cccc(Cn2ccc3c2ccc(=O)n3-c2ccccc2)c1 | ≤ 2000 nM |
| O=c1ccc2c(ccn2Cc2nc3ccccc3s2)n1-c1ccccc1 | ≤ 2000 nM |
| O=C(c1cn(Cc2ccccc2)c2ccc(=O)n(-c3ccccc3)c12)C(F)(F)F | ≤ 2000 nM |
| CCOC(=O)c1cc2c(ccc(=O)n2-c2ccsc2)n1Cc1cccc(Cl)c1 | ≤ 2000 nM |
| Cc1ccccc1Cn1ccc2c1ccc(=O)n2-c1ccccc1 | ≤ 2000 nM |
| Cc1ccc(-n2c(=O)ccc3c2cc(C(N)=O)n3Cc2cccc(Cl)c2)cc1 | ≤ 2000 nM |
| CCOC(=O)c1cc2c(ccc(=O)n2-c2ccc3[nH]ccc3c2)n1Cc1cccc(Cl)c1 | ≤ 2000 nM |
| N#Cc1cccc(Cn2ccc3c2ccc(=O)n3-c2ccccc2)c1 | ≤ 2000 nM |
| O=c1ccc2c(ccn2Cc2ccc(F)c(Cl)c2)n1-c1ccccc1 | ≤ 2000 nM |
| CC(c1ccccc1)n1ccc2c1ccc(=O)n2-c1ccccc1 (stereo not drawn) | ≤ 2000 nM |
| O=c1ccc2c(ccn2Cc2ccc(Cl)cc2)n1-c1ccccc1 | ≤ 2000 nM |
| CCOC(=O)c1cc2c(ccc(=O)n2-c2ccccc2)n1Cc1ccc(F)c(Cl)c1 | ≤ 2000 nM |
| CON(C)C(=O)c1cc2c(ccc(=O)n2-c2ccccc2)n1Cc1cccc(C)c1 | ≤ 2000 nM |
| O=C(c1ccccc1)n1ccc2c1ccc(=O)n2-c1ccccc1 | ≤ 2000 nM |
| O=c1ccc2c(ccn2Cc2ccc(Cl)s2)n1-c1ccccc1 | ≤ 2000 nM |
| CCOC(=O)c1cc2c(ccc(=O)n2-c2ccc(C)cc2)n1Cc1cccc(Cl)c1 | ≤ 2000 nM |
| N#Cc1cc2c(ccc(=O)n2-c2ccccc2)n1Cc1cccc(Cl)c1 | ≤ 2000 nM |
| CCOC(=O)c1cc2c(ccc(=O)n2-c2ccccc2)n1Cc1ccccc1 | ≤ 2000 nM |
| NC(=O)c1cc2c(ccc(=O)n2-c2ccc3[nH]ccc3c2)n1Cc1cccc(Cl)c1 | ≤ 2000 nM |
| CNC(=O)c1cc2c(ccc(=O)n2-c2ccccc2)n1Cc1cccc(Cl)c1 | ≤ 2000 nM |
| O=c1ccc2c(ccn2Cc2ccccc2)n1-c1ccccc1 | ≤ 2000 nM |
| CCOC(=O)c1cc2c(ccc(=O)n2-c2ccccc2[N+](=O)[O-])n1Cc1cccc(Cl)c1 | ≤ 2000 nM |
| O=c1ccc2c(ccn2Cc2ccncc2)n1-c1ccccc1 | ≤ 2000 nM |
